Data: the supplement of paper PMC6045584
± gives the standard deviation of the averaged measurements.

Assays:
[1] = compound: C[C@H](CN(C)C)Oc1nc(Nc2cc3cccc(Cl)c3cn2)cnc1C#N; experiment: surviving fraction relative to DMSO-only wells; higher = less growth inhibition; details: exposure time: 5 days
Method in brief: (§1)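 At 250–500 cells per well in 384-well plates, log-phase tumour cell lines were seeded and, 24 hours on, exposed continuously for five days to inhibitors at 0.5, 1, 5, 10, 50, 100, 500 and 1000 nM. Viability readout was CellTiter-Glo luminescence, reported as surviving fraction normalised to the median of DMSO-only wells.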

BMN-673 = compound: Cn1ncnc1[C@H]1c2n[nH]c(=O)c3cc(F)cc(c23)N[C@@H]1c1ccc(F)cc1 [BMN-673]; experiment: as above; details: exposure time: 5 days
Method in brief: as §1

Row | Test System | surviving fraction ([1]; 0.5 nM) | surviving fraction ([1]; 1 nM) | surviving fraction ([1]; 5 nM) | surviving fraction ([1]; 10 nM) | surviving fraction ([1]; 50 nM) | surviving fraction ([1]; 100 nM) | surviving fraction ([1]; 500 nM) | surviving fraction ([1]; 1000 nM) | surviving fraction (BMN-673; 0.5 nM) | surviving fraction (BMN-673; 1 nM) | surviving fraction (BMN-673; 5 nM) | surviving fraction (BMN-673; 10 nM) | surviving fraction (BMN-673; 50 nM) | surviving fraction (BMN-673; 100 nM) | surviving fraction (BMN-673; 500 nM) | surviving fraction (BMN-673; 1000 nM)
1 | SG31 HEADNECK | 1.04 ± 0.091 | 1.08 ± 0.072 | 1.1 ± 0.28 | 1.07 ± 0.12 | 1.07 ± 0.16 | 1.07 ± 0.11 | 0.982 ± 0.14 | 0.967 ± 0.032 | 1.18 ± 0.14 | 1.12 ± 0.028 | 1.08 ± 0.24 | 0.911 ± 0.15 | 0.969 ± 0.046 | 0.787 ± 0.09 | 0.916 ± 0.064 | 0.751 ± 0.046
2 | NCIH441 LUNG | 1.1 ± 0.07 | 1.01 ± 0.04 | 1.1 ± 0.035 | 1.19 ± 0.053 | 1.17 ± 0.026 | 1.16 ± 0.11 | 0.86 ± 0.051 | 0.531 ± 0.031 | 1.11 ± 0.035 | 1.11 ± 0.081 | 1.01 ± 0.039 | 0.872 ± 0.037 | 0.78 ± 0.13 | 0.723 ± 0.1 | 0.584 ± 0.082 | 0.499 ± 0.083
3 | HOS BONE | 1.01 ± 0.014 | 1.01 ± 0.024 | 0.996 ± 0.018 | 0.9907 ± 0.005 | 1.01 ± 0.035 | 1.002 ± 0.01 | 0.619 ± 0.023 | 0.16 ± 0.017 | 1.04 ± 0.037 | 1 ± 0.018 | 0.976 ± 0.018 | 0.974 ± 0.036 | 0.993 ± 0.04 | 0.96 ± 0.036 | 0.596 ± 0.022 | 0.282 ± 0.026
4 | SAOS2 BONE | 1.18 ± 0.055 | 1.19 ± 0.047 | 1.17 ± 0.058 | 1.137 ± 0.01 | 1.39 ± 0.1 | 1.32 ± 0.068 | 1.08 ± 0.12 | 0.944 ± 0.042 | 1.05 ± 0.058 | 1 ± 0.029 | 0.999 ± 0.077 | 0.831 ± 0.069 | 0.675 ± 0.018 | 0.489 ± 0.047 | 0.285 ± 0.022 | 0.219 ± 0.047
5 | DU4475 BREAST | 1 ± 0.29 | 0.794 ± 0.19 | 0.918 ± 0.04 | 0.753 ± 0.064 | 0.777 ± 0.2 | 1.18 ± 0.25 | 0.476 ± 0.076 | 0.337 ± 0.095 | 1.1 ± 0.049 | 0.916 ± 0.11 | 0.57 ± 0.055 | 0.456 ± 0.071 | 0.325 ± 0.068 | 0.278 ± 0.054 | 0.284 ± 0.052 | 0.293 ± 0.027
6 | CAL120 BREAST | 0.928 ± 0.063 | 0.922 ± 0.076 | 0.965 ± 0.057 | 0.934 ± 0.047 | 0.957 ± 0.069 | 0.917 ± 0.03 | 0.9 ± 0.07 | 0.745 ± 0.027 | 0.968 ± 0.033 | 0.915 ± 0.067 | 0.798 ± 0.05 | 0.676 ± 0.035 | 0.591 ± 0.014 | 0.506 ± 0.062 | 0.43 ± 0.021 | 0.425 ± 0.035
7 | MDAMB157 BREAST | 0.946 ± 0.057 | 0.982 ± 0.033 | 1.01 ± 0.021 | 0.947 ± 0.048 | 1.03 ± 0.051 | 0.902 ± 0.11 | 0.239 ± 0.015 | 0.136 ± 0.029 | 0.999 ± 0.13 | 0.944 ± 0.081 | 0.844 ± 0.084 | 0.795 ± 0.1 | 0.541 ± 0.01 | 0.392 ± 0.01 | 0.228 ± 0.017 | 0.257 ± 0.036
8 | SG43 HEADNECK | 0.863 ± 0.068 | 0.929 ± 0.058 | 0.961 ± 0.13 | 0.933 ± 0.091 | 0.729 ± 0.078 | 0.585 ± 0.08 | 0.692 ± 0.082 | 0.91 ± 0.18 | 1.19 ± 0.23 | 0.909 ± 0.061 | 0.694 ± 0.044 | 0.678 ± 0.046 | 0.74 ± 0.093 | 0.703 ± 0.089 | 0.678 ± 0.091 | 0.785 ± 0.056
9 | MDAMB231 BREAST | 0.9579 ± 0.0095 | 0.9571 ± 0.0043 | 0.93 ± 0.076 | 0.959 ± 0.024 | 0.9788 ± 0.0062 | 0.961 ± 0.02 | 0.743 ± 0.029 | 0.492 ± 0.0092 | 0.98 ± 0.029 | 0.972 ± 0.02 | 0.898 ± 0.019 | 0.838 ± 0.022 | 0.711 ± 0.053 | 0.639 ± 0.011 | 0.523 ± 0.021 | 0.454 ± 0.03
10 | BT549 BREAST | 1.12 ± 0.055 | 1.14 ± 0.12 | 1.05 ± 0.1 | 1.1 ± 0.044 | 1.1 ± 0.076 | 0.896 ± 0.095 | 0.141 ± 0.024 | 0.0517 ± 0.011 | 1.07 ± 0.05 | 1.03 ± 0.019 | 1.03 ± 0.11 | 0.797 ± 0.044 | 0.755 ± 0.051 | 0.652 ± 0.079 | 0.438 ± 0.04 | 0.323 ± 0.019
11 | VP229 BREAST | 0.984 ± 0.1 | 1.02 ± 0.056 | 1.1 ± 0.12 | 1.04 ± 0.14 | 1.05 ± 0.096 | 1.09 ± 0.042 | 1.04 ± 0.086 | 0.86 ± 0.028 | 1.09 ± 0.33 | 1.09 ± 0.16 | 1.1 ± 0.12 | 0.995 ± 0.091 | 0.969 ± 0.026 | 0.922 ± 0.17 | 0.951 ± 0.1 | 0.873 ± 0.19
12 | CASKI CERVIX | 0.839 ± 0.052 | 0.909 ± 0.086 | 0.959 ± 0.032 | 0.922 ± 0.02 | 1.009 ± 0.01 | 0.9417 ± 0.0087 | 0.217 ± 0.011 | 0.12 ± 0.01 | 0.942 ± 0.03 | 0.888 ± 0.063 | 0.9 ± 0.036 | 0.88 ± 0.06 | 0.858 ± 0.054 | 0.821 ± 0.068 | 0.594 ± 0.0084 | 0.502 ± 0.02
13 | BT20 BREAST | 1.14 ± 0.095 | 1.15 ± 0.081 | 1.22 ± 0.083 | 1.14 ± 0.072 | 1.19 ± 0.093 | 1.31 ± 0.072 | 1.35 ± 0.079 | 1.21 ± 0.093 | 1.22 ± 0.014 | 1.15 ± 0.11 | 1.04 ± 0.034 | 0.971 ± 0.052 | 0.88 ± 0.035 | 0.797 ± 0.074 | 0.673 ± 0.13 | 0.474 ± 0.08
14 | MG63 BONE | 1.03 ± 0.042 | 1.05 ± 0.035 | 1.05 ± 0.037 | 1.06 ± 0.025 | 1.11 ± 0.031 | 1.12 ± 0.047 | 1.05 ± 0.051 | 0.889 ± 0.045 | 1.03 ± 0.023 | 0.988 ± 0.026 | 0.989 ± 0.028 | 0.917 ± 0.017 | 0.646 ± 0.014 | 0.432 ± 0.039 | 0.285 ± 0.0053 | 0.193 ± 0.029
15 | CAL51 BREAST | 0.939 ± 0.051 | 0.961 ± 0.065 | 1.03 ± 0.025 | 0.922 ± 0.047 | 0.982 ± 0.062 | 0.855 ± 0.053 | 0.272 ± 0.049 | 0.123 ± 0.037 | 0.941 ± 0.037 | 0.807 ± 0.065 | 0.548 ± 0.014 | 0.389 ± 0.021 | 0.219 ± 0.026 | 0.146 ± 0.027 | 0.0603 ± 0.01 | 0.0523 ± 0.0019
16 | MDAMB468 BREAST | 0.976 ± 0.074 | 1.01 ± 0.043 | 1.08 ± 0.035 | 1.071 ± 0.0092 | 1.03 ± 0.036 | 1.03 ± 0.041 | 0.54 ± 0.039 | 0.223 ± 0.017 | 0.993 ± 0.083 | 0.914 ± 0.024 | 0.824 ± 0.1 | 0.728 ± 0.12 | 0.578 ± 0.039 | 0.451 ± 0.053 | 0.305 ± 0.033 | 0.243 ± 0.013
17 | 22RV1 PROSTATE | 1.15 ± 0.15 | 1.02 ± 0.071 | 1.01 ± 0.074 | 1.06 ± 0.15 | 0.999 ± 0.046 | 0.887 ± 0.14 | 1.03 ± 0.037 | 0.838 ± 0.12 | 1.06 ± 0.073 | 1.01 ± 0.11 | 0.871 ± 0.14 | 0.776 ± 0.18 | 0.657 ± 0.09 | 0.64 ± 0.037 | 0.468 ± 0.061 | 0.324 ± 0.048
18 | JURKAT HAEMATOPOIETIC AND LYMPHOID TISSUE | 1.08 ± 0.028 | 1.07 ± 0.013 | 1.05 ± 0.015 | 1.01 ± 0.021 | 0.927 ± 0.038 | 0.948 ± 0.02 | 0.619 ± 0.029 | 0.103 ± 0.014 | 1.04 ± 0.027 | 1.04 ± 0.015 | 0.863 ± 0.035 | 0.838 ± 0.014 | 0.601 ± 0.049 | 0.503 ± 0.033 | 0.123 ± 0.007 | 0.0493 ± 0.0047
19 | HUO3N1 BONE | 1.11 ± 0.059 | 1.05 ± 0.032 | 1.07 ± 0.023 | 1.07 ± 0.072 | 1.13 ± 0.071 | 0.982 ± 0.031 | 0.7257 ± 0.0065 | 0.486 ± 0.025 | 0.991 ± 0.023 | 0.998 ± 0.043 | 0.945 ± 0.038 | 0.9 ± 0.014 | 0.8017 ± 0.0063 | 0.658 ± 0.015 | 0.448 ± 0.03 | 0.357 ± 0.021
20 | HCC1395 BREAST | 0.957 ± 0.076 | 1.14 ± 0.13 | 1.161 ± 0.011 | 1.15 ± 0.14 | 1.27 ± 0.16 | 1.22 ± 0.029 | 0.729 ± 0.1 | 0.671 ± 0.15 | 1 ± 0.13 | 0.991 ± 0.081 | 0.86 ± 0.054 | 0.967 ± 0.045 | 0.892 ± 0.064 | 0.8195 ± 0.0048 | 0.715 ± 0.039 | 0.637 ± 0.12
21 | ZR751 BREAST | 1.07 ± 0.13 | 1.07 ± 0.085 | 1.08 ± 0.17 | 0.991 ± 0.078 | 0.867 ± 0.13 | 0.909 ± 0.15 | 0.543 ± 0.082 | 0.587 ± 0.042 | 1.23 ± 0.14 | 1.14 ± 0.15 | 1.04 ± 0.22 | 1 ± 0.15 | 1.01 ± 0.068 | 0.974 ± 0.11 | 1.04 ± 0.07 | 0.816 ± 0.017
